Reference: patent US20090069373A1, “Quinoline Acids” (Wyeth, priority 2007, published 2009)

Assays:
human LXRβ = molecular target: T1, human LXRβ (Homo sapiens, UniProt P55055); experiment: Ligand-binding test procedure for human LXRβ (3H T0901317 competition, flash plates); settings: for Binding ratio a/b: IC50 (μM) LXRα binding/IC50 (μM) LXRβ binding; for IC50: biotinylated hLXRβ, tracer 3H T0901317
T1 construct: biotin (biotinylated; biotinylation tag not described); made in house; host or cells: E. coli
T1 sequence (P55055 1-460): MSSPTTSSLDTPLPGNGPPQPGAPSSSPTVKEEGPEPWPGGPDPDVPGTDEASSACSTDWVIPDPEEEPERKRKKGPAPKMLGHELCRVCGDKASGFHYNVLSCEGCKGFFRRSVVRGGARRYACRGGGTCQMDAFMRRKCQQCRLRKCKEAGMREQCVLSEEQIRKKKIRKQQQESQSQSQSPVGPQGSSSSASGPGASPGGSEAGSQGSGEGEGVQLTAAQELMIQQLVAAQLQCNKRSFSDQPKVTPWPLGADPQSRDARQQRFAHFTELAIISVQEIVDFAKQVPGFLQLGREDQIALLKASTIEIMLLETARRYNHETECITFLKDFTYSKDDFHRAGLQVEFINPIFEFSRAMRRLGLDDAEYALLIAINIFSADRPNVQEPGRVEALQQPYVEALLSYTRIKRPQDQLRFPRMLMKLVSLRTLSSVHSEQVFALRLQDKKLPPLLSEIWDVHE
Experimental: Ligand-Binding Test Procedure for Human LXRβ.
Receptor source: E. coli extract from cells expressing biotinylated hLXRβ. Extract was made in a similar buffer as above, but with 50 mM TRIS.
(§1) Washed streptavidin and coated flash plates with wash buffer.
(§2) Diluted receptor extract to give Bmax ˜4000 cpm and add to the wells.
(§3) Wrapped the plates in aluminum foil and stored them at +4° C. over night.
(§4) Made a dilution series in DMSO of the test ligands.
(§5) Made a 5 nM solution of the radioactive tracer in buffer.
(§6) Mixed 250 μl diluted tracer with 5 μl of the test ligand from each concentration of the dilution series.
(§7) Washed the receptor-coated flash plates.
(§8) Added 200 μl per well of the ligand/radiolabel mixture to the receptor-coated flash plates.
(§9) Wrapped the plates in aluminum foil and incubate at +4° C. over night.
(§10) Aspirated wells, and wash the flashed plates. Sealed the plate.
(§11) Measured the remaining radioactivity in the plate.

human LXRα = molecular target: T2, human LXRα (Homo sapiens, UniProt Q13133); experiment: Ligand-binding test procedure for human LXRα (3H T0901317 competition, flash plates); settings: biotinylated hLXRα, tracer 3H T0901317
T2 construct: biotin (biotinylated; biotinylation tag not described); made in house; host or cells: E. coli
T2 sequence (Q13133 1-447): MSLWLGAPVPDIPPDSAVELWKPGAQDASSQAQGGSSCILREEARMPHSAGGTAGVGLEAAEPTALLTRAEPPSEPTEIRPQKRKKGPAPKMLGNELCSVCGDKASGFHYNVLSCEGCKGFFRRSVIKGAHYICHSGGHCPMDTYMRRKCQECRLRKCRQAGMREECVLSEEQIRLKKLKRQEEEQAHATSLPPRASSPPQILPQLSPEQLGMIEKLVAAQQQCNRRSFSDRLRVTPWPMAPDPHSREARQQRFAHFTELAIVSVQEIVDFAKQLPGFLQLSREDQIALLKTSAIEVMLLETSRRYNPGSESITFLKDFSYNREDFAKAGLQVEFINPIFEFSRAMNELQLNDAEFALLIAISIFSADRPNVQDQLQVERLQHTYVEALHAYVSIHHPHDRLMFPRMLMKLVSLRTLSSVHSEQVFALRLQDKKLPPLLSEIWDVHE
Experimental: Ligand-Binding Test Procedure for Human LXRα.
Receptor source: E. coli extract from cells expressing biotinylated hLXRα. Extract was made in a similar buffer as above, but with 50 mM TRIS.
as §1, §2, §3, §4, §5, §6, §7, §8, §9, §10, §11

Binding ratio a/b (human LXRβ) | IC50 (human LXRβ) [nM] | IC50 (human LXRα) [nM] | Structure (SMILES)
10 | 34 | 333 | O=C(O)CCc1ccc(NCc2cccc(-c3c(Cc4ccccc4)cnc4c(C(F)(F)F)cccc34)c2)cc1 [Example 27, 3-[4-({3-[3-benzyl-8-(trifluoromethyl)quinolin-4-yl]benzyl}amino)phenyl]propanoic acid]
2 | 1370 | 3010 | Cc1ccc(C(=O)O)cc1NCc1cccc(-c2c(Cc3ccccc3)cnc3c(C(F)(F)F)cccc23)c1 [Example 94, 3-({3-[3-benzyl-8-(trifluoromethyl)quinolin-4-yl]benzyl}amino)-4-methylbenzoic acid]
3 | 408 | 1250 | O=C(O)c1cc2cccc(NCc3cccc(-c4c(Cc5ccccc5)cnc5c(C(F)(F)F)cccc45)c3)c2[nH]1 [Example 77, 7-({3-[3-benzyl-8-(trifluoromethyl)quinolin-4-yl]benzyl}amino)-1H-indole-2-carboxylic acid]
2 | 481 | 723 | O=C(O)c1cc(F)cc(Oc2cccc(-c3c(Cc4ccccc4)cnc4c(Cl)cccc34)c2)c1 [Example 123, 3-[3-(3-Benzyl-8-chloroquinolin-4-yl)phenoxy]-5-fluorobenzoic acid]
1 | 1190 | 1290 | O=C(O)Cc1ccc2cccc(OCc3cccc(-c4c(Cc5ccccc5)cnc5c(C(F)(F)F)cccc45)c3)c2c1 [Example 114, [8-({3-[3-benzyl-8-(trifluoromethyl)quinolin-4-yl]benzyl}oxy)-2-naphthyl]acetic acid]
16 | 12 | 201 | COc1cc(NCc2cccc(-c3c(Cc4ccccc4)cnc4c(C(F)(F)F)cccc34)c2)c(Cl)cc1C(=O)O [Example 18, 4-({3-[3-benzyl-8-(trifluoromethyl)quinolin-4-yl]benzyl}amino)-5-chloro-2-methoxybenzoic acid]
1 | 5290 | 7280 | Cc1cnc2c(C(F)(F)F)cccc2c1-c1cccc(CNc2cc(F)ccc2C(=O)O)c1 [Example 106, 4-fluoro-2-({3-[3-methyl-8-(trifluoromethyl)quinolin-4-yl]benzyl}amino)benzoic acid]
2 | 1030 | 2220 | O=C(O)c1ccc2ccccc2c1OCc1cccc(-c2c(Cc3ccccc3)cnc3c(C(F)(F)F)cccc23)c1 [Example 95, 1-({3-[3-benzyl-8-(trifluoromethyl)quinolin-4-yl]benzyl}oxy)-2-naphthoic acid]
2 | 183 | 354 | O=C(O)c1ccc(NCc2cccc(-c3c(Cc4ccccc4)cnc4c(C(F)(F)F)cccc34)c2)cc1 [Example 101, 4-({3-[3-benzyl-8-(trifluoromethyl)quinolin-4-yl]benzyl}amino)benzoic acid]
6 | 249 | 1380 | O=C(O)c1ccc(F)c(NCc2cccc(-c3c(Cc4ccccc4)cnc4c(C(F)(F)F)cccc34)c2)c1 [Example 52, 3-({3-[3-benzyl-8-(trifluoromethyl)quinolin-4-yl]benzyl}amino)-4-fluorobenzoic acid]
6 | 538 | 3270 | O=C(O)c1cccc2c(NCc3cccc(-c4ccnc5c(C(F)(F)F)cccc45)c3)cccc12 [Example 48, 5-({3-[8-(trifluoromethyl)quinolin-4-yl]benzyl}amino)-1-naphthoic acid]
– | 7220 | > 1000 | Cc1cnc2c(C(F)(F)F)cccc2c1-c1cncc(CNc2cccc3c(CC(=O)O)cccc23)c1 [Example 119, {5-[({5-[3-methyl-8-(trifluoromethyl)quinolin-4-yl]pyridin-3-yl}methyl)amino]-1-naphthyl}acetic acid]
2 | 237 | 493 | O=C(O)c1ccccc1NCc1cccc(-c2c(Cc3ccccc3)cnc3c(C(F)(F)F)cccc23)c1 [Example 97, 2-({3-[3-benzyl-8-(trifluoromethyl)quinolin-4-yl]benzyl}amino)benzoic acid]
4 | 2 | 7 | Cc1cc(NCc2cc(-c3c(Cc4ccccc4)cnc4c(C(F)(F)F)cccc34)cs2)c(C)cc1CC(=O)O [Example 70, {4-[({4-[3-benzyl-8-(trifluoromethyl)quinolin-4-yl]-2-thienyl}methyl)amino]-2,5-dimethylphenyl}acetic acid]
22 | 148 | 3210 | Cc1cc(C(=O)O)c(C)cc1NCc1cncc(-c2c(Cc3ccccc3)cnc3c(C(F)(F)F)cccc23)c1 [Example 14, 4-[({5-[3-benzyl-8-(trifluoromethyl)quinolin-4-yl]pyridin-3-yl}methyl)amino]-2,5-dimethylbenzoic acid]
5 | 98 | 467 | O=C(O)[C@@H]1CCCN1C(=O)c1cccc(COc2cccc(-c3c(Cc4ccccc4)cnc4c(C(F)(F)F)cccc34)c2)c1 [Example 59, 1-[3-({3-[3-benzyl-8-(trifluoromethyl)quinolin-4-yl]phenoxy}methyl)benzoyl]proline]
2 | 2500 | 5200 | COc1ccc(C(=O)O)cc1OCc1cccc(-c2c(Cc3ccccc3)cnc3c(C(F)(F)F)cccc23)c1 [Example 98, 3-({3-[3-benzyl-8-(trifluoromethyl)quinolin-4-yl]benzyl}oxy)-4-methoxybenzoic acid]
3 | 25 | 80 | Cc1cc(NCc2cccc(-c3c(Cc4ccccc4)cnc4c(C(F)(F)F)cccc34)c2)ccc1C(=O)O [Example 75, 4-({3-[3-benzyl-8-(trifluoromethyl)quinolin-4-yl]benzyl}amino)-2-methylbenzoic acid]
2 | 1470 | 2630 | COc1ccc(C(=O)O)cc1C#Cc1cccc(-c2c(Cc3ccccc3)cnc3c(C(F)(F)F)cccc23)c1 [Example 131, 3-({3-[3-Benzyl-8-(trifluoromethyl)quinolin-4-yl]phenyl}ethynyl)-4-methoxybenzoic acid]
6 | 209 | 1170 | O=C(O)c1cccc(NCc2cccc(-c3c(Cc4ccccc4)cnc4c(C(F)(F)F)cccc34)c2)c1 [Example 51, 3-({3-[3-benzyl-8-(trifluoromethyl)quinolin-4-yl]benzyl}amino)benzoic acid]
3 | 318 | 983 | CSCC[C@H](NC(=O)c1cccc(COc2cccc(-c3c(Cc4ccccc4)cnc4c(C(F)(F)F)cccc34)c2)c1)C(=O)O [Example 76, N-[3-({3-[3-benzyl-8-(trifluoromethyl)quinolin-4-yl]phenoxy}methyl)benzoyl]methionine]
2 | 3300 | 5040 | Cc1c(NCc2cccc(-c3c(Cc4ccccc4)cnc4c(C(F)(F)F)cccc34)c2)ccc(C(=O)O)c1C [Example 103, 4-({3-[3-benzyl-8-(trifluoromethyl)quinolin-4-yl]benzyl}amino)-2,3-dimethylbenzoic acid]
6 | 1300 | 8000 | O=C(O)c1ccc2cc(NCc3cccc(-c4ccnc5c(C(F)(F)F)cccc45)c3)ccc2c1 [Example 46, 6-({3-[8-(trifluoromethyl)quinolin-4-yl]benzyl}amino)-2-naphthoic acid]
1 | 1560 | 1720 | O=C(O)c1ccc(COc2cccc(-c3c(Cc4ccccc4)cnc4c(C(F)(F)F)cccc34)c2)c(Cl)c1 [Example 113, 4-({3-[3-benzyl-8-(trifluoromethyl)quinolin-4-yl]phenoxy}methyl)-3-chlorobenzoic acid]
